# Test results: US20210260106A1, “CHLORITE-CONTAINING COMPOSITIONS” (ClearCrescent Technologies, LLC, priority 2008, published 2021)
# Read-outs that look alike come from different tables or passages of the source.
# Legend:
# [1] = Topical treatment of psoriasis, divided elbow, one subject; format: in vivo, human; conditions: for Result after 3 days treated twice daily: elbow section
# Source text: Background: A subject suffered from Psoriasis diagnosed […]. They have not undergone treatment for their condition since 1996. They report rash after bathing that turns to white plaques with scaling within days. Treatment 1: […] They then distributed the combination to the entire affected right lateral section of their elbow. Treatment 2: […] They then distributed the combination to the entire affected outside lateral section. Treatment 3: […] They then distributed the combination to the entire affected interior lateral section.
# [2] = test system: onychomycosis; fungal infections of the skin and nails; test: Azole antifungals tested on fungal infections of skin and nails; design: species or system human; conditions: in vivo
# human cells = conditions: Ingram et al 2004; cited from earlier work
# [3] = test system: Trichophyton rubrum ATCC MYA 4438; test: MIC study in broth culture, sodium chlorite and itraconazole; format: cell-based; conditions: for MIC: Trichophyton rubrum, read-out: amount of Itraconazole required to inhibit the fungus (MIC)
# Protocol: As shown in the examples, in vitro data was generated and the minimum inhibitory concentrations (MIC) tests were determined in broth culture using ATCC MYA 4438. Itraconazole is the azole used in the study. […] On the X-axis are dilutions of itraconazole. Fungal Growth is noted by a + and lack of growth by a −.
# Referring to FIG. 18, the experiments were repeated with the strain Trichophyton rubrum.
# [4] = test system: Trichophyton mentagrophytes ATCC MYA 4439; test: as above; format: cell-based; conditions: for MIC: Trichophyton mentagrophytes, read-out: amount of Itraconazole required to inhibit the fungus (MIC)
# [5] = format: in vivo, human
# Source text: Compositions were topically applied to various skin and nail conditions. […] The solution was applied by dropper to affected areas, or combined with a bioactive agent and then applied to the affected area or applied sequentially to the affected area at least once daily, preferably twice daily during treatment period. […] Background: A subject was diagnosed with Dyshidrosis in March of 2012. Symptoms included small blisters on the palms of their hands and the underside of their fingers with scaling. […] They abandoned the treatment. Symptoms continued. They occasionally self-treated the condition with over the counter Lamisil. […] Treatment: […]
# [6] = Topical treatment of psoriasis on chin and face; format: in vivo, human; conditions: three days twice daily
# Protocol: Patient was treated on the chin for three days twice daily. On their right side of the chin, sodium chlorite solution was applied alone.
# They applied SC combined with CCT's herbal treatment to their right side of their chin. SC+ a composition containing 3.66 g thymol, 3.66 g menthol, 3.66 g menthyl acetate in 100 ml grapeseed oil with 0.25 ounce beeswax.
# [7] = test system: dermataphytes that cause tinea pedis and onychomycosis
# Candida albicans = conditions: at 0.5%
# Treatment of dog wound = format: in vivo; conditions: rear leg
# Source text: Dog was occasionally limping and favoring his rear leg. A 2-inch diameter area of raw red moist skin was observed where hair had fallen out. Upon close inspection a 1,½ inch suppurating cut was observed which created a dark line leading to a 1 cm×2 cm section of blackened skin. Dog had been topically treated with Triamcinolone Acetonide and bandaged previously to no effect.
# The ratio was 1:1. At the second and third interval Neosporin™ was mixed in hand with other compositions in a 1:1:1 ratio. Dog was not observed to lick wound.
# Protocol for Candidia albicans: An in vitro determination of the use of sodium chlorite on human tissue culture and broth culture of Candidia albicans was performed.
compound,measurement,setting,value
"C=C1CCN([C@H](C)[C@](O)(Cn2cncn2)c2ccc(F)cc2F)CC1 [10% efinaconazole, efinaconazole]",Result after 3 days treated twice daily,[1],Rash and white scaling
same,Result after 3 days treated twice daily,[1]; listed as efinaconazole,white dry scales and evidence of rash
"N#C/C(=C1/SC[C@@H](c2ccc(Cl)cc2Cl)S1)n1ccnc1 [1% Luliconazole cream, luliconazole]",psoriasis symptoms one day later,"[1]; Treatment 2, elbow section",White dry scales were perceived though the rash was less apparent
same,Result after 3 days treated twice daily,[1],Red Rash and scaling
same,Result after 3 days treated twice daily,[1]; listed as Luliconazole,red rash and plaques were present
CC(=O)N1CCN(c2ccc(OCC3COC(Cn4ccnc4)(c4ccc(Cl)cc4Cl)O3)cc2)CC1 (stereo not shown) [Ketaconazole],effectiveness against fungal infection of nails/skin,[2],excellent results
chlorite ions,concentration shown to be non-toxic to human cells,human cells,100 ppm
"CCC(C)n1ncn(-c2ccc(N3CCN(c4ccc(OCC5COC(Cn6cncn6)(c6ccc(Cl)cc6Cl)O5)cc4)CC3)cc2)c1=O (stereo not shown) [Itraconazole, itraconazole]",MIC,[3]; combined with sodium chlorite,< 0.03 µg/mL
same,MIC,[3]; itraconazole alone,0.06 µg/mL
same,decrease of itraconazole MIC,[3]; combined with sodium chlorite,at least 2 fold
same,MIC,[4]; combined with sodium chlorite,< 0.03 µg/mL
same,MIC,[4]; itraconazole alone,0.125 µg/mL
same,decrease of itraconazole MIC,[4]; combined with sodium chlorite,at least 4 fold
CN(C/C=C/C#CC(C)(C)C)Cc1cccc2ccccc12 [Lamisil],local tolerance of earlier treatment,"[5]; human, in vivo",stinging
same,result of earlier treatment of the subject's Dyshidrosis,[5]; subject's history before the study,no significant amelioration of symptoms
sodium chlorite,Candidia albicans killing,Candidia albicans; 0.5% sodium chlorite in culture broth,effective in killing
same,Candidia albicans killing,"Candidia albicans; 0.5% sodium chlorite in culture broth, listed as Sodium Chlorite",Yes
same,Candidia albicans killing,Candidia albicans; 2.0% sodium chlorite in culture broth,effective in killing
same,Candidia albicans killing,"Candidia albicans; 2.0% sodium chlorite in culture broth, listed as Sodium Chlorite",Yes
same,toxicity against Candidas albicans,Candidia albicans; at 0.5%,100%
same,regrowth of Candidia albicans,Candidia albicans; continued culture without sodium chlorite,did not result in regrowth
same,side by side comparison with standard antifungal agent in vitro,Candidia albicans; versus fluconazole,significantly superior results compared to fluconazole
same,"recurrence of psoriasis symptoms in treated area of chin, 92 days later",[6],no recurrence of psoriasis symptoms
same,drop of sodium chlorite's MIC,[3]; combined with itraconazole,eight-fold
same,drop of sodium chlorite's MIC,[4]; combined with itraconazole,two-fold
same,effective concentration when combined with azole antifungals,[7]; combined with antifungals in the azole group,≥ 0.015%
same,effective concentrations alone against dermataphytes,"[7]; sodium chlorite alone, broth culture and in vivo",0.25-4%
same,effect on Candida albicans on agar plates,Candida albicans,kills Candida albicans rather than simply inhibiting its growth
"Clc1ccccc1C(c1ccccc1)(c1ccccc1)n1ccnc1 [1% Clotrimazole cream, Clotrimazole]",psoriasis symptoms two days later,"[1]; Treatment 3, elbow section",White dry scales were not perceived and the rash was less apparent
same,Result after 3 days treated twice daily,[1],plaques are not present
CC1(C)O[C@@H]2C[C@H]3[C@@H]4CCC5=CC(=O)C=C[C@]5(C)[C@@]4(F)[C@@H](O)C[C@]3(C)[C@]2(C(=O)CO)O1 [Triamcinolone Acetonide],wound outcome,Treatment of dog wound,no effect
